The values below come from US20210137829A1, “TOPICAL DELIVERY SYSTEMS FOR ACTIVE COMPOUNDS” (Yissum Research Development Company of the Hebrew …, priority 2017, published 2021).

Data set [1] can be described thus: Self-diffusion NMR (SD-NMR). It counts as physicochemical. As to the method: In order to characterize the structure of the oily domains, self-diffusion NMR (SD-NMR) analysis was carried out. SD-NMR analysis provides an indication on the location of each component within the structure, by calculating the diffusion coefficient of each component in the system.
SD-NMR measurements were performed with a Bruker AVII 500 spectrometer equipped with GREAT 1/10 gradients, a 5 mm BBO and a 5 mm BBI probe, both with a z-gradient coil and with a maximum gradient strength of 0.509 and 0.544 T m^−1, respectively. Diffusion was measured using an asymmetric bipolar longitudinal eddy-current delay (bpLED) experiment, or and asymmetric bipolar stimulated echo (known as one-shot) experiment with convection compensation and an asymmetry factor of 20%, ramping the strongest gradient from 2% to 95% of maximum strength in 32 steps. The spectrum was processed with the Bruker TOPSPIN software. NMR spectra were recorded at 25±0.2° C. The components were identified by their chemical shift in 1H NMR.

Data set [2] in a line: Water dilution of the oily phase. It counts as physicochemical. The conditions noted are these: oily phase loaded with active; un-loaded phase separates above 50 wt % water. The method, then:
2 wt % DCF-Na loaded oily composition which is substantially devoid of water (i.e. a concentrate) was prepared according to the process described above. The un-diluted oily composition was constituted by self-assembled oil-solvated clusters or short domains of surfactants, which differ from the classical reverse micelles. These concentrates are dilutable by any suitable diluent, for example by purified water, to form a diluted delivery system.
It was noted that the oily carrier, i.e. the oily composition without DCF-Na, could not be fully diluted.

Each structure is given as a SMILES string.

As for `O=C([O-])Cc1ccccc1Nc1c(Cl)cccc1Cl.[Na+]` [DCF-Na, diclofenac sodium], the “Diffusion coefficient Dx of DCF-Na” value in data set [1] (2 wt % DCF-Na formulation, FIGS. 11A-11B) is reported as 0.1×10^−11 m^2/sec. Further, the “Diffusion coefficient of DCF-Na, gelled vs non-viscosified” value in data set [1] (80 wt % water, 0.75 wt % gellant) is given as “lower in the gelled formulation than in the non-viscosified system”. The “Dilutability of the oily phase with water” value in data set [2] is listed as “fully dilutable up to 90 wt %”.
